Assay results as given in US20140378515A1, “IMMUNOSUPPRESSIVE COMPOUNDS” (priority 2013, published 2014).
≈ marks a conversion by molar mass, not a printed value. Where “and” joins values, the source holds several entries; their conditions need not be identical. Equal entries are not always repeated.

How the values were obtained:
[1] = test system: ROS produced by human blood phagocytes; test: Oxidative burst, luminol-enhanced chemiluminescence in whole blood; type: cell-based; details: serum opsonized zymosan
Protocol: Formation of the reactive oxygen species (ROS) in whole blood, during the oxidative burst was measured by the luminol-enhanced chemiluminescence assay. In brief, three concentrations of each compound (1.0, 10 and 100 μg/mL) were prepared in 25 μL of Hank's Balanced salt solution containing calcium chloride and magnesium sulfate (HBSS^++) in a half area 96-well white flat-bottomed plate (Sigma Aldrich, Steinheim, Germany) in a final volume of 100 μL. Then 25 μL of whole blood diluted 1:50 in suspension of HBSS^++ was added.
Positive and negative controls and blank wells were included. Cells and compounds were incubated for 30 minutes at 37° C., then 25 μL luminol [3-aminophthalhydrazide] (Research Organics Cleveland, Ohio, USA), were added into each well followed by 25 μL of serum opsonized zymosan (Saccharomyces cerevisiae origin) purchased from Fluka, Buchs (Switzerland) was added except for negative and blank wells. The ROS chemiluminescence kinetic was monitored with a luminometer from Labsystems (Helsinki, Finland), for 50 minutes in the repeated scan mode. Peak and total integral chemiluminescence readings were expressed in the relative light unit.

[2] = test system: NO produced by mouse macrophages J774.2 cell line; test: Nitrite accumulation in LPS-stimulated J774.2 macrophages (Griess method); type: cell-based; details: LPS-stimulated J774.2, 24 hours
Protocol: The mouse macrophage cell line J774.2 obtained from ECACC, Salisbury, Wiltshire (UK) was cultured in T75 flasks in complete DMEM containing 10% fetal bovine serum and supplemented with 1% streptomycin/penicillin. Flasks were kept at 37° C. in the atmosphere of humidified air containing 5% CO2. Cell were then seeded in 24 well (10^6 cells/mL) and nitric oxide synthase (NOS-2) in the macrophages was induced by addition of 20 μg/mL E. coli lipopolysaccharide (DIFCO Laboratories, Michigan, USA). The test compounds were added at a concentration of 25 μg/mL soon after LPS stimulation and incubated at 37° C. in 5% CO2. Cell culture supernatant was collected after 24 hours. Nitrite accumulation in J774.2 cell culture supernatant was measured using the Griess method, where 50 μL of 1% sulphanilamide in 2.5% phosphoric acid, followed by 50 μL of 0.1% naphtyl-ethylene diamine dihydrochloride in 2.5% phosphoric acid were added to 50 μL culture medium. After 10 minutes of incubation at room temperature the absorbance at 550 nm was read. Micromolar concentrations of nitrite were calculated from standard curve constructed with sodium nitrite a reference compound. The results were expressed as means±SD of duplicate readings.

T-cell proliferation = T-cell proliferation assay (PHA-stimulated PBMNCs, 3H-thymidine incorporation); type: cell-based, human; parameters: unit not given here; details: PHA 5 μg/mL stimulated PBMNCs
Protocol: The diluted blood was then layered onto lymphocyte separation medium (MP Biomedicals, Inc., Ohio, USA) and centrifuged at 400 g for 20 min at 25° C. […] Plates were then incubated at 37° C. in a humidified atmosphere of 5% CO2 in air for 72 hours. To each well, 0.5 μCi [methyl ^3H]-thymidine (Amersham Place Little Chalfont, Buckinghamshire, UK) was added for an additional 18 hours. Cells were harvested using a cell harvester (Inotech, Dottikon, Switzerland), and incorporation and level of radioactivity was measured by a liquid scintillation counter (Beckman coulter, LS 6500, Fullerton, Calif., USA).

IL-2 production = IL-2 production by PHA/PMA stimulated PBMCs (ELISA); type: cell-based, human; details: for IC50: experimental IL-2 IC50 listed in Table 3
Protocol: The PBMCs were cultured in a 96-well flat-bottomed plate (1.0×10^5 cell/well) in the presence or absence of three concentrations of test compounds (1.0, 5.0 and 20 μg/mL), and phytohemagglutinin (PHA) phorbol myristate acetate (PMA) in a final concentration of 5 ng/mL and 20 ng/mL, respectively. After an incubation period of 18 h at 37° C. in a humidified atmosphere of 5% CO2 in air, the supernatant was collected for IL-2 determination. Interleukin-2 levels were measured by using enzyme-linked immunosorbent assay (ELISA) development kit (R&D systems, Minneapolis, Minn., USA). The assay was performed according to the manufacturer's instructions. Briefly, a 96-well flat-bottomed ELISA plate was coated with 4.0 μg/mL mouse anti-human IL-2, in PBS, pH 7.4. Then, re-combinant human IL-2 standards and culture supernatant samples were added and incubated for 2 h followed by washing steps and then the addition of biotinylated goat anti-human IL-2. After an incubation period of 2 h at room temperature, the plates were again washed and streptavidin conjugated horse raddish peroxidase was added and incubated for additional 20 min at room temperature. After the final washes, an enzyme substrate solution of H2O2 and tetra methyl benzidine (1:1 v/v) was added and the color was allowed to develop at room temperature in the dark. The plates were then read at 450 nm in a plate reader (DIAReader GMBH, Wr. Neudorf, Austria). The results were analyzed using Microsoft Excel.

[3] = test system: NO produced by mouse macrophages J774.2 cell line; test: Nitrite accumulation in LPS-stimulated J774.2 macrophages (Griess method); type: cell-based
[4] = test system: 3T3 NIH mouse embryo fibroblast cell line; test: MTT cytotoxicity assay; details: for Cytotoxicity IC50: 3T3 NIH cells, 48 h; for interference with the growth of 3T3 cells: up to 20 μg/mL
Protocol: The 3T3-NIH cells were suspended in Dulbecco's Modified Eagle's Medium (DMEM) formulated with 10% FBS. Using flat bottomed plates, cells were plated at a concentration of 6×10^4 cells/mL and incubated for 24 h at 37° C. and 5% CO2 environment. […] Following exposure to each compound, cell viability was assessed by using 0.5 mg/mL of MTT {3-(4,5-dimethylthiazol-2-yl)-2,5-diphenyltetrazolium bromide for 4 h followed by the removal of supernatant and addition of DMSO to solubilize the formazan complex. The plates were read at 540 nm after one minute shaking and readings were processed using MS Excel software. The results were expressed as means±SD of triplicate readings.

IL-4 production = IL-4 production by PHA stimulated PBMNCs (ELISA); type: cell-based, human; details: 18 h
Protocol: The PBMNCs were cultured in a 96-well flat-bottomed plate (2.0×10^6 cell/mL) in the presence or absence of three concentrations of test compounds (1.0, 5.0, and 25 μg/mL), and phytohemagglutinin (PHA) in a final concentration of 7.5 μg/mL. After an incubation period of 18 h at 37° C. in 5% CO2, supernatant was collected for IL-4 determination. Interleukin-4 levels were measured by using enzyme-linked immunosorbent assay (ELISA) kit (Diaclone, France). The assay was performed according to the manufacturer's instructions. Briefly, in a 96-well ELISA plate which was coated with monoclonal mouse anti-human IL-4, 100 μl recombinant human IL-4 standards and culture supernatants samples were added. The plates were incubated for 2 hours at room temperature and washed three times with wash buffer, followed by the addition of biotinylated goat anti-human IL-4 and further incubated for 1 hour at room temperature. The plates were again washed and streptavidin conjugated horse raddish peroxidase was added and incubated for an additional 20 minutes at room temperature. After three final washes, the enzyme substrate solution was added and incubated for 12 to 15 minutes to allow color development at room temperature in the dark. Then stop solution was added and the plates were read at 450 nm in a plate reader (DIAReader GMBH, Wr. Neudorf, Austria). The results were analyzed using Microsoft Excel.

| SMILES | IC50 (μg/mL) for phagocytes ROS [1] | % of NO inhibited by 25 μg/mL of compound [2] | Cytotoxicity IC50 [4] | interference with the growth of 3T3 cells [4] | other results |
| --- | --- | --- | --- | --- | --- |
| CCOc1cccc(-c2nc3ccccc3s2)c1O [Compound 1] | >100 µg/mL | 26.5 ± 0.0% |  |  |  |
| c1ccc2cc(-c3nc4ccccc4s3)ccc2c1 [Compound 3] | >100 µg/mL | 20.5 ± 5.9% |  |  |  |
| Oc1ccc(-c2nc3ccccc3s2)cc1 [Compound 4] | >100 µg/mL | 56.1±0.6% | >25 µg/mL | did not interfere with the growth of 3T3 cells | IC50 T-cell proliferation (T-cell proliferation): 2.3±0.1; IC50 (IL-2 production): 2.9 µg/mL (≈ 12.8 µM); IC50 NO production [3]: 7.9 ± 0.9 µg/mL (≈ 34.8 µM) |
| Oc1cccc(-c2nc3ccccc3s2)c1 [Compound 5] | >100 µg/mL | 44.5 ± 0.3% | >20 µg/mL | did not interfere with the growth of 3T3 cells | IC50 T-cell proliferation (T-cell proliferation): 2.7±0.2; IC50 IL-2 production (IL-2 production; PHA/PMA stimulated PBMCs, 18 h incubation): 6.0 µg/mL (≈ 26.4 µM); IC50 IL-4 production (IL-4 production): 8.9 ± 0.6 µg/mL (≈ 39.2 µM) |
| Oc1ccc(Cl)cc1-c1nc2ccccc2s1 [Compound 6] | 34.3 ± 4.4 µg/mL | 35.5 ± 7.4% |  |  |  |
| Cc1ccccc1-c1nc2ccccc2s1 [Compound 7] | >100 µg/mL | 5.4 ± 2.8% |  |  |  |
| Oc1ccc(O)c(-c2nc3ccccc3s2)c1 [Compound 8] | <1 µg/mL | 91.1±0.7% | >20 µg/mL | did not interfere with the growth of 3T3 cells | IC50 T-cell proliferation (T-cell proliferation): 1.1±0.1; IC50 (IL-2 production): <1 µg/mL; IC50 IL-4 production (IL-4 production): 9.8 ± 0.6 µg/mL (≈ 40.3 µM); IC50 NO production [3]: < 5 µg/mL |
| Oc1ccc(-c2nc3ccccc3s2)cc1O [Compound 9] | 3.7 ± 0.2 µg/mL | 58.5±3.3% | 11.1 µg/mL and 11.4 ± 1.8 µg/mL | did not interfere with the growth of 3T3 cells | IC50 T-cell proliferation (T-cell proliferation): 1.2±0.0; IC50 NO production [3]: 12.6 ± 2.1 µg/mL (≈ 51.8 µM) |
| Oc1cccc(-c2nc3ccccc3s2)c1O [Compound 10] | 1.1 ± 0.1 µg/mL | 14.3 ± 1.0% |  | did not interfere with the growth of 3T3 cells | IC50 T-cell proliferation (T-cell proliferation): 0.99±0.1 |
| Clc1ccc(-c2nc3ccccc3s2)c(Cl)c1 [Compound 11] | >100 µg/mL | −7.4 ± 3.0% |  |  |  |
| COc1ccc(-c2nc3ccccc3s2)cc1OC [Compound 12] | >100 µg/mL | −1.5 ± 0.6% |  |  | IC50 T-cell proliferation (T-cell proliferation): 1.0±0.1; IC50 IL-4 production (IL-4 production): < 1.0 µg/mL |
| Oc1ccc(-c2nc3ccccc3s2)c(O)c1 [Compound 13] | 11.1 ± 0.9 µg/mL | 32.7 ± 8.3% | 11.5 ± 0.0 µg/mL | did not interfere with the growth of 3T3 cells |  |
| CN(C)c1ccc(-c2nc3ccccc3s2)cc1 [Compound 14] | 11.8 ± 1.2 µg/mL | 16.8 ± 0.8% | >25 µg/mL | did not interfere with the growth of 3T3 cells |  |
| Cc1ccc(-c2nc3ccccc3s2)cc1 [Compound 15] | >100 µg/mL | 10.8 ± 2.4% |  |  |  |
| Oc1ccccc1-c1nc2ccccc2s1 [Compound 16] | >100 µg/mL | 20.2 ± 1.5% |  |  |  |
| Clc1cccc(-c2nc3ccccc3s2)c1 [Compound 17] | 81.0 ± 4.1 µg/mL | 14.1 ± 3.0% |  |  |  |
| Oc1cc(O)c(-c2nc3ccccc3s2)cc1O [Compound 18] | >100 µg/mL | 78.1±1.6% | 10.4 µg/mL |  | IC50 T-cell proliferation (T-cell proliferation): 1.95±0.4; IC50 (IL-2 production): 1.1 µg/mL (≈ 4.24 µM); IC50 IL-4 production (IL-4 production): 8.0 ± 0.0 µg/mL (≈ 30.9 µM) |
| c1cncc(-c2nc3ccccc3s2)c1 [Compound 19] | >100 µg/mL | 11.7 ± 1.7% |  |  |  |
| c1ccc2sc(-c3ccncc3)nc2c1 [Compound 20] | 15.5 ± 1.0 µg/mL | 41.6 ± 4.7% | >25 µg/mL |  |  |
| Brc1ccc(-c2nc3ccccc3s2)cc1 [Compound 21] | >100 µg/mL | 11.5 ± 2.7% |  |  |  |
| CCOc1ccc(-c2nc3ccccc3s2)cc1 [Compound 22] | >100 µg/mL | 23.5 ± 3.7% |  |  |  |
| Fc1ccccc1-c1nc2ccccc2s1 [Compound 23] | >100 µg/mL | 28.4 ± 2.5% |  |  |  |
| c1csc(-c2nc3ccccc3s2)c1 [Compound 24] | 14.4 ± 2.5 µg/mL | 30.3 ± 0.3% | >25 µg/mL | did not interfere with the growth of 3T3 cells |  |
| Clc1ccc(-c2nc3ccccc3s2)cc1 [Compound 25] | >100 µg/mL | 20.6 ± 5.3% |  |  |  |
| Clc1ccc(-c2nc3ccccc3s2)cc1Cl [Compound 26] | >100 µg/mL | 35.7 ± 1.5% |  |  |  |
| CC(C)Cc1ccc(C(C)C(=O)O)cc1 (centres unmarked) [Ibuprofen, reference compound] |  |  |  |  | IC50 ([1]; read-out: IC50 (μg/mL) for phagocytes ROS): 11.8 ± 1.2 µg/mL |
